According to ChEMBL document CHEMBL1154382, “Preliminary SAR analysis of novel antiproliferative N(6),5'-bis-ureidoadenosine derivatives” (2009):

Experiments:
Type in all cases: functional
Details in all cases: values are per cent of control
[1] = system: CCRF-CEM; assay: Antiproliferative activity against human CCRF-CEM cells at 10 uM assessed as cell growth inhibition relative to control
[2] = system: HL-60(TB); assay: Antiproliferative activity against human HL-60(TB) cells at 10 uM assessed as cell growth inhibition relative to control
[3] = system: K562; assay: Antiproliferative activity against human K562 cells at 10 uM assessed as cell growth inhibition relative to control
[4] = system: MOLT-4; assay: Antiproliferative activity against human MOLT4 cells at 10 uM assessed as cell growth inhibition relative to control
[5] = Antiproliferative activity against human […] cells at 10 uM assessed as cell growth inhibition relative to control
[6] = system: A549; assay: Antiproliferative activity against human A549 cells at 10 uM assessed as cell growth inhibition relative to control
[7] = system: EKVX; assay: Antiproliferative activity against human EKVX cells at 10 uM assessed as cell growth inhibition relative to control
[8] = system: PC-3; assay: Antiproliferative activity against human PC3 cells at 10 uM assessed as cell growth inhibition relative to control
[9] = system: HOP-62; assay: Antiproliferative activity against human HOP62 cells at 10 uM assessed as cell growth inhibition relative to control
[10] = system: HOP-92; assay: Antiproliferative activity against human HOP92 cells at 10 uM assessed as cell growth inhibition relative to control
[11] = system: NCI-H226; assay: Antiproliferative activity against human NCI-H226 cells at 10 uM assessed as cell growth inhibition relative to control
[12] = system: NCI-H23; assay: Antiproliferative activity against human NCI-H23 cells at 10 uM assessed as cell growth inhibition relative to control
[13] = system: NCI-H322M; assay: Antiproliferative activity against human NCI-H322M cells at 10 uM assessed as cell growth inhibition relative to control
[14] = system: NCI-H460; assay: Antiproliferative activity against human NCI-H460 cells at 10 uM assessed as cell growth inhibition relative to control
[15] = system: NCI-H522; assay: Antiproliferative activity against human NCI-H522 cells at 10 uM assessed as cell growth inhibition relative to control
[16] = system: COLO 205; assay: Antiproliferative activity against human COLO205 cells at 10 uM assessed as cell growth inhibition relative to control
[17] = system: HCC 2998; assay: Antiproliferative activity against human HCC2998 cells at 10 uM assessed as cell growth inhibition relative to control
[18] = system: HCT-116; assay: Antiproliferative activity against human HCT116 cells at 10 uM assessed as cell growth inhibition relative to control
[19] = system: HCT-15; assay: Antiproliferative activity against human HCT15 cells at 10 uM assessed as cell growth inhibition relative to control
[20] = system: HT-29; assay: Antiproliferative activity against human HT-29 cells at 10 uM assessed as cell growth inhibition relative to control
[21] = system: KM12; assay: Antiproliferative activity against human KM12 cells at 10 uM assessed as cell growth inhibition relative to control
[22] = system: SW-620; assay: Antiproliferative activity against human SW620 cells at 10 uM assessed as cell growth inhibition relative to control
[23] = system: LOX IMVI; assay: Antiproliferative activity against human LOXIMVI cells at 10 uM assessed as cell growth inhibition relative to control
[24] = system: Malme-3M; assay: Antiproliferative activity against human MALME-3M cells at 10 uM assessed as cell growth inhibition relative to control
[25] = system: M14; assay: Antiproliferative activity against human M14 cells at 10 uM assessed as cell growth inhibition relative to control
[26] = system: SK-MEL-2; assay: Antiproliferative activity against human SK-MEL-2 cells at 10 uM assessed as cell growth inhibition relative to control
[27] = system: SK-MEL-28; assay: Antiproliferative activity against human SK-MEL-28 cells at 10 uM assessed as cell growth inhibition relative to control
[28] = system: SK-MEL-5; assay: Antiproliferative activity against human SK-MEL-5 cells at 10 uM assessed as cell growth inhibition relative to control
[29] = system: UACC-257; assay: Antiproliferative activity against human UACC257 cells at 10 uM assessed as cell growth inhibition relative to control
[30] = system: UACC-62; assay: Antiproliferative activity against human UACC62 cells at 10 uM assessed as cell growth inhibition relative to control
[31] = system: SF-268; assay: Antiproliferative activity against human SF268 cells at 10 uM assessed as cell growth inhibition relative to control
[32] = system: SF-295; assay: Antiproliferative activity against human SF295 cells at 10 uM assessed as cell growth inhibition relative to control
[33] = system: SF-539; assay: Antiproliferative activity against human SF539 cells at 10 uM assessed as cell growth inhibition relative to control
[34] = system: SNB-19; assay: Antiproliferative activity against human SNB19 cells at 10 uM assessed as cell growth inhibition relative to control
[35] = system: SNB-75; assay: Antiproliferative activity against human SNB75 cells at 10 uM assessed as cell growth inhibition relative to control
[36] = system: U-251; assay: Antiproliferative activity against human U251 cells at 10 uM assessed as cell growth inhibition relative to control
[37] = system: IGROV-1; assay: Antiproliferative activity against human IGROV1 cells at 10 uM assessed as cell growth inhibition relative to control
[38] = system: OVCAR-3; assay: Antiproliferative activity against human OVCAR-3 cells at 10 uM assessed as cell growth inhibition relative to control
[39] = system: OVCAR-4; assay: Antiproliferative activity against human OVCAR4 cells at 10 uM assessed as cell growth inhibition relative to control
[40] = system: OVCAR-5; assay: Antiproliferative activity against human OVCAR5 cells at 10 uM assessed as cell growth inhibition relative to control
[41] = system: OVCAR-8; assay: Antiproliferative activity against human OVCAR8 cells at 10 uM assessed as cell growth inhibition relative to control
[42] = system: SK-OV-3; assay: Antiproliferative activity against human SKOV3 cells at 10 uM assessed as cell growth inhibition relative to control
[43] = system: 786-0; assay: Antiproliferative activity against human 786-0 cells at 10 uM assessed as cell growth inhibition relative to control
[44] = system: A498; assay: Antiproliferative activity against human A498 cells at 10 uM assessed as cell growth inhibition relative to control
[45] = system: ACHN; assay: Antiproliferative activity against human ACHN cells at 10 uM assessed as cell growth inhibition relative to control
[46] = system: CAKI-1; assay: Antiproliferative activity against human Caki1 cells at 10 uM assessed as cell growth inhibition relative to control
[47] = system: RXF 393; assay: Antiproliferative activity against human RXF393 cells at 10 uM assessed as cell growth inhibition relative to control
[48] = system: SN12C; assay: Antiproliferative activity against human SN12C cells at 10 uM assessed as cell growth inhibition relative to control
[49] = system: TK-10; assay: Antiproliferative activity against human TK10 cells at 10 uM assessed as cell growth inhibition relative to control
[50] = system: UO-31; assay: Antiproliferative activity against human UO31 cells at 10 uM assessed as cell growth inhibition relative to control
[51] = system: BT-549; assay: Antiproliferative activity against human BT549 cells at 10 uM assessed as cell growth inhibition relative to control
[52] = Antiproliferative activity against human Hs 578T cells at 10 uM assessed as cell growth inhibition relative to control
[53] = system: MCF7; assay: Antiproliferative activity against human MCF7 cells at 10 uM assessed as cell growth inhibition relative to control
[54] = system: MDA-MB-231; assay: Antiproliferative activity against human MDA-MB-231 cells at 10 uM assessed as cell growth inhibition relative to control
[55] = system: MDA-MB-468; assay: Antiproliferative activity against human MDA-MB-468 cells at 10 uM assessed as cell growth inhibition relative to control
[56] = system: T47D; assay: Antiproliferative activity against human T47D cells at 10 uM assessed as cell growth inhibition relative to control
[57] = system: DU-145; assay: Antiproliferative activity against human DU145 cells at 10 uM assessed as cell growth inhibition relative to control

Molecule `CCOC(=O)C[C@H]1[C@@H](O[Si](C)(C)C(C)(C)C)[C@H](n2cnc3c(N)ncnc32)O[C@@H]1COC(=O)NC` has a growth, % of control at 10 µM [1] of 98%, a growth, % of control at 10 µM [2] of 80% and a growth, % of control at 10 µM [3] of 86%. The growth, % of control at 10 µM [4] was 55%, the growth, % of control at 10 µM [5] was 79% and the growth, % of control at 10 µM [6] was 92%. It also gave a growth, % of control at 10 µM [7] of 83%, a growth, % of control at 10 µM [8] of 84% and a growth, % of control at 10 µM [9] of 74%. For the same molecule, the growth, % of control at 10 µM [10] was 95%, the growth, % of control at 10 µM [11] was 79% and the growth, % of control at 10 µM [12] was 105%. It also gave a growth, % of control at 10 µM [13] of 99%, a growth, % of control at 10 µM [14] of 106% and a growth, % of control at 10 µM [15] of 75%. It also gave a growth, % of control at 10 µM [16] of 104%, a growth, % of control at 10 µM [17] of 55% and a growth, % of control at 10 µM [18] of 81%. For the same molecule, the growth, % of control at 10 µM [19] was 87%, the growth, % of control at 10 µM [20] was 100% and the growth, % of control at 10 µM [21] was 102%. It also gave a growth, % of control at 10 µM [22] of 104%, a growth, % of control at 10 µM [23] of 88% and a growth, % of control at 10 µM [24] of 96%. The growth, % of control at 10 µM [25] was 100%, the growth, % of control at 10 µM [26] was 111% and the growth, % of control at 10 µM [27] was 106%. The growth, % of control at 10 µM [28] was 68%, the growth, % of control at 10 µM [29] was 94% and the growth, % of control at 10 µM [30] was 77%. The growth, % of control at 10 µM [31] was 97%, the growth, % of control at 10 µM [32] was 92% and the growth, % of control at 10 µM [33] was 89%. It also gave a growth, % of control at 10 µM [34] of 92%, a growth, % of control at 10 µM [35] of 83% and a growth, % of control at 10 µM [36] of 86%. It also gave a growth, % of control at 10 µM [37] of 118%, a growth, % of control at 10 µM [38] of 98% and a growth, % of control at 10 µM [39] of 78%. For the same molecule, the growth, % of control at 10 µM [40] was 115%, the growth, % of control at 10 µM [41] was 98% and the growth, % of control at 10 µM [42] was 94%. It also gave a growth, % of control at 10 µM [43] of 87%, a growth, % of control at 10 µM [44] of 98% and a growth, % of control at 10 µM [45] of 89%. It also gave a growth, % of control at 10 µM [46] of 79%, a growth, % of control at 10 µM [47] of 78% and a growth, % of control at 10 µM [48] of 96%. The growth, % of control at 10 µM [49] was 110%, the growth, % of control at 10 µM [50] was 95% and the growth, % of control at 10 µM [51] was 74%. For the same molecule, the growth, % of control at 10 µM [52] was 93%, the growth, % of control at 10 µM [53] was 98% and the growth, % of control at 10 µM [54] was 85%. For the same molecule, the growth, % of control at 10 µM [55] was 77%, the growth, % of control at 10 µM [56] was 84% and the growth, % of control at 10 µM [57] was 100%.
